The target of test [1] is T1, ALKBH2 (Homo sapiens, UniProt Q6NS38).
T1 sequence (Q6NS38 1-261): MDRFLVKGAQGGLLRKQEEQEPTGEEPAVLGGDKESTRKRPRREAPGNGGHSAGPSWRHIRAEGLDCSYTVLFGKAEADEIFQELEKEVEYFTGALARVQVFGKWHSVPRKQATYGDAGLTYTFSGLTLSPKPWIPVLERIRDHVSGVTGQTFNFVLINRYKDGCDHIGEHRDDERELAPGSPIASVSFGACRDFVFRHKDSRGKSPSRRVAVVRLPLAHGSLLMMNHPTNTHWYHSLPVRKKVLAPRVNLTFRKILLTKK
As to conditions: 37 °C.

The target in test [2] is T2, ALKBH3 (Homo sapiens, UniProt Q96Q83).
T2 sequence (Q96Q83 1-286): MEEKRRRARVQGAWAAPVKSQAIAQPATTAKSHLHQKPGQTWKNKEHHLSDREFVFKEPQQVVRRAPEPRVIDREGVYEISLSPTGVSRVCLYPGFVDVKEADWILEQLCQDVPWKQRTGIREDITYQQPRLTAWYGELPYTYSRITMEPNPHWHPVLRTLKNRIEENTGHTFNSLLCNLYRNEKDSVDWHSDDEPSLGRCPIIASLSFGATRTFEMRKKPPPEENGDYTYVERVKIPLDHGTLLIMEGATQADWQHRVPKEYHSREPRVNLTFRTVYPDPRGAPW
As to conditions: 37 °C.

Test [3] concerns the target T3, AlkB (Escherichia coli, UniProt P05050). As to conditions: 37 °C.
In test [4] the target is T2, ALKBH3. As to the kind of experiment: Inhibition constant. It is filed as biochemical. As to conditions: versus αKG, 37 °C.
Test [5] concerns the target T3, AlkB. Kind of test: Inhibition constant. It is filed as biochemical.
Test [6] deals with T1, ALKBH2. As to the kind of experiment: Inhibition of ALKBH2 repair at tumor-relevant 2HG:αKG ratios. As to conditions: L-2HG:αKG = 28:1, αKG 100 µM; range over all substrates. The class given is biochemical.
Test [7] addresses T2, ALKBH3. Kind of test: Inhibition of ALKBH3 repair at tumor-relevant 2HG:αKG ratios. The class given is biochemical. As to conditions: L-2HG:αKG = 28:1, αKG 100 µM; range over all substrates.
Test [8] deals with ALKBH2 and ALKBH3. It is filed as biochemical, human. As to conditions: L-2HG:αKG = 28:1, αKG 100 µM; range over both enzymes and all substrates.
The target in test [9] is T1, ALKBH2. As to the kind of experiment: Inhibition constant. The class given is biochemical. As to conditions: for Ki: versus αKG, 37 °C.
Setting [10] is: AlkB, ds-m1A, versus αKG, 37 °C.
Setting [11] is: AlkB, ds-m3C, versus αKG, 37 °C.
Setting [12] is: AlkB, ss-m1A, versus αKG, 37 °C.
The mark [13] stands for this setting: AlkB, ss-m3C, versus αKG, 37 °C.

SMILES strings stand for the structures. Read-outs that look alike come from different tables or passages of the source.

The text below walks through data of article PMC5498157 (Chemical research in toxicology, 2017).

T3 sequence (P05050 whole entry): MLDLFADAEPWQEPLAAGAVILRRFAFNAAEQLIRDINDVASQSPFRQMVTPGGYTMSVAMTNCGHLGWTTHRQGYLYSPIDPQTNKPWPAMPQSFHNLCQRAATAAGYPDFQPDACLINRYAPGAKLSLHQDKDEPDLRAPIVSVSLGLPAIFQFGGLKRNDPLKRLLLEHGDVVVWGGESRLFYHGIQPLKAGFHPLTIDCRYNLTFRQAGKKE

A word on the Km: it is the concentration of substrate that gives half-maximal velocity. A word on the kcat: it is the maximal rate divided by the concentration of active sites. On to `O=C(O)CCC(=O)C(=O)O` [αKG, α-ketoglutarate], for which the Km was found to be 7300 ± 900 nM in test [1] (ALKBH2, ds-m1A); 1900 ± 400 nM in test [1] (ALKBH2, ds-m3C); 4100 ± 900 nM in test [1] (ALKBH2, ss-m1A); 1400 ± 200 nM in test [1] (ALKBH2, ss-m3C); 2300 ± 100 nM in test [2] (ALKBH3, ss-m1A); 1900 ± 400 nM in test [2] (ALKBH3, ss-m3C). The Km in [3] (ds-m1A) was found to be 12.7 ± 1.3 µM; in [3] (ds-m3C) it was 10.8 ± 1.9 µM; in test [3] (ss-m1A) it was 7.1 ± 1.1 µM; in test [3] (ss-m3C), 19.9 ± 1.3 µM. The catalytic constant (kcat) in test [1] (ALKBH2, ds-m1A) came to 2.5 ± 0.1 min⁻¹; in [1] (ALKBH2, ds-m3C), 2.6 ± 0.1 min⁻¹; in test [1] (ALKBH2, ss-m1A) it was 1.1 ± 0.1 min⁻¹; in test [1] (ALKBH2, ss-m3C), 1.7 ± 0.1 min⁻¹; in test [2] (ALKBH3, ss-m1A), 1.2 ± 0.0 min⁻¹; in test [2] (ALKBH3, ss-m3C), 1.7 ± 0.0 min⁻¹. Also, the kcat in test [3] (ds-m1A) was found to be 4.8 ± 0.2 min⁻¹; in test [3] (ds-m3C), 8.2 ± 0.4 min⁻¹; in [3] (ss-m1A), 4.2 ± 0.2 min⁻¹; in test [3] (ss-m3C) it was 24.5 ± 0.7 min⁻¹.

One may read the Ki as a dissociation constant, usually derived from enzyme kinetics or from competition with a known ligand. A higher Ki goes with weaker binding. Take `O=C(O)CC[C@H](O)C(=O)O` [L-2HG, L-2-hydroxyglutarate]: the inhibitory constant (Ki) in test [4] (ALKBH3, ss-m1A) was 185 ± 23 µM; in test [4] (ALKBH3, ss-m3C) it was 228 ± 16 µM; in test [5] (setting [10]), 598 ± 173 µM; in [5] (setting [11]), 308 ± 108 µM; in [5] (setting [12]), 337 ± 99 µM; in [5] (setting [13]), 276 ± 111 µM. The “inhibition of ALKBH2 activity” value in test [6] is recorded as 48–58%. In addition, in test [7], the “inhibition of ALKBH3 activity” value is 31–40%. Besides, the “inhibition of ALKBH2 and ALKBH3 repair activities” value in [8] is given as 31–58%.

`O=C(O)CC[C@@H](O)C(=O)O` [D-2HG, D-2-hydroxyglutarate]: the Ki in test [4] (ALKBH3, ss-m1A) turned out to be 545 ± 77 µM; in [4] (ALKBH3, ss-m3C), 490 ± 46 µM; in test [5] (setting [10]), 529 ± 126 µM; in test [5] (setting [11]) it was 230 ± 55 µM; in [5] (setting [12]), 571 ± 166 µM; in test [5] (setting [13]), 447 ± 113 µM.

Take `O=C(O)CNC(=O)C(=O)O` [N-OG, N-oxalylglycine, reference compound]: the Ki in test [9] (ALKBH2, ds-m1A) came out at 16 ± 5 µM; in test [9] (ALKBH2, ds-m3C), 7 ± 2 µM; in test [9] (ALKBH2, ss-m1A), 30 ± 7 µM; in test [9] (ALKBH2, ss-m3C), 40 ± 7 µM; in test [4] (Ki, ALKBH3, ss-m1A), 27 ± 4 µM; in test [4] (Ki, ALKBH3, ss-m3C), 37 ± 3 µM. The Ki in test [5] was 2 ± 1.3 µM; in [5] (Ki, AlkB, ds-m3C, versus αKG, 37 °C), 0.2 µM; in test [5] (Ki, AlkB, ss-m1A, versus αKG, 37 °C), 0.4 ± 0.1 µM; in [5] (Ki, AlkB, ss-m3C, versus αKG, 37 °C) it was 0.4 ± 0.1 µM. The “potency relative to D- and L-2HG” value in [9] (from Ki values, all repair reactions) is “about 10 times”.
